The subject of this experiment is Staphylococcus aureus bacteria. Nature of the experiment: 2 Hours % Live Bacteria Test. The format is cell-based. To be noted: standard solution 0.5 wt-% in DI, calculated Ag+ weight 22,224 μg.

The structures appear in SMILES notation.

Experimental: The effectiveness of a sample was tested using a L-7012, Bacterial Viability Kit, available from Molecular Probes (Eugene, Oreg.). The procedure is outlined below using the red, propidium iodide dye, and green, SYTO 9 dye, contained in the kit to stain the live and dead bacteria.
Preparation of bacteria solution: Staphylococcus aureus bacteria were grown in Trypticase (Tryptic) Soy Broth (TSB) medium overnight. Bacteria were concentrated by centrifugation at 10,000× gravity for 15 minutes (min). Supernatant was removed and the pellet was re-suspended in MilliQ water (filtered through a 0.2 μm pore-size filter) or in Butterfield phosphate buffer (from Hardy Diagnostics, Santa Maria, Calif.). […]
Sample preparation: All prototypes were prepared by punching out a 1-inch (2.54-cm) diameter samples using a stainless steel punch; sometimes as indicated in the examples a 1-inch (2.54 cm) disk was further cut with scissors in eighths and then evaluated. […]
Bacteria labeling and Anti-microbial testing: 7 m]L of bacteria solution at initial concentration of approximately 1×10^8 bacteria/mL were pipetted into a 50 mL conical tube containing the sample. […] These solutions were then measured by flow cytometry. Cell viability was measured using the BD FACSCaliber flow cytometer (made by Becton Dickinson & Company, Franklin Lakes, N.J.). […]

As to `O=[N+]([O-])[O-].[Ag+]` [silver nitrate, Silver Nitrate], the “% live bacteria after 2 hours” value was 15.8%.

(Values after US20040180093A1, “Polymer compositions with bioactive agent, medical articles, and methods” (3M Innovative Properties Company, priority 2003, published 2004).)
